Experiment [1] concerns the target T1, Phosphatidylinositol 4,5-bisphosphate 3-kinase catalytic subunit delta isoform (Homo sapiens, UniProt O00329).
T1 sequence (O00329 whole entry): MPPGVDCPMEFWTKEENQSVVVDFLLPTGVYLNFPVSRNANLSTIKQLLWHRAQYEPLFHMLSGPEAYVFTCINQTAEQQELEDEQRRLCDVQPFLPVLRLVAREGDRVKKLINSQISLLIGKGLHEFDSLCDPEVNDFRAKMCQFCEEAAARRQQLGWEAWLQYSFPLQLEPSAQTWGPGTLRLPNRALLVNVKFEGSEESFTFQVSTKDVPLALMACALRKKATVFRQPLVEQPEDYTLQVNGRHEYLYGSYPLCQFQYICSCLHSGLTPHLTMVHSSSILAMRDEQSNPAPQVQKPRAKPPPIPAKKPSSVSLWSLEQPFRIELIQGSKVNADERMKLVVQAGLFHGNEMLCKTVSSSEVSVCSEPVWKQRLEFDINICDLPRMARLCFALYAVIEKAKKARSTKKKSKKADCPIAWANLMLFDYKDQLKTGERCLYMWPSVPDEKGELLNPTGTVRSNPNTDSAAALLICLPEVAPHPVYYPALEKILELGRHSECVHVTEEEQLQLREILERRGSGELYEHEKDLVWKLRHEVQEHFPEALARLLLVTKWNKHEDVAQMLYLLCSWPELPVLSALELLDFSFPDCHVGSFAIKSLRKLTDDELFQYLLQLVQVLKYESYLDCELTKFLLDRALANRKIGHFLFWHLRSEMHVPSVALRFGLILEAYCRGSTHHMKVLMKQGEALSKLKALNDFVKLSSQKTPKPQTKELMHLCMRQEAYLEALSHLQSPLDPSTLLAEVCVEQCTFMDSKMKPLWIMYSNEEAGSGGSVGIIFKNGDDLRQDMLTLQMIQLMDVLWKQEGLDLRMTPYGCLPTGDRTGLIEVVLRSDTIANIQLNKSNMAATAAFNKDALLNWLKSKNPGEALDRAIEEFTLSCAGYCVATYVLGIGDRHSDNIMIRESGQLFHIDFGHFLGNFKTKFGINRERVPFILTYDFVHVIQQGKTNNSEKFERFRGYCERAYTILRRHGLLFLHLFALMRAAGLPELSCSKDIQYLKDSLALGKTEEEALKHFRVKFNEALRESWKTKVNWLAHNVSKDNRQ
The experiment is described as follows: Inhibition of PI3K delta in human whole blood assessed as inhibition of anti-IgE-stimulated CysLt release in basophils preincubated for 30 mins followed by anti-IgE stimulation and measured after 20 mins. Format: tissue-based.

Experiment [2] has as its target Calcium/calmodulin-dependent protein kinase type 1 (Homo sapiens, UniProt Q14012). The experiment is described as follows: Inhibition of full length human CAMK1 alpha expressed in baculovirus expression system using ZIPtide as substrate after 1 hr in presence of ATP by TR-FRET based assay. (In TR-FRET formats the signal depends on donor and acceptor labels being close together.)

In experiment [3] the target is Tyrosine-protein kinase ABL1 (Homo sapiens, UniProt P00519, Y253F). The experiment is described as follows: Inhibition of recombinant full length human His-tagged ABL1 Y253F mutant cytoplasmic domain expressed in baculovirus expression system using tyrosine-2 peptide as substrate incubated for 60 mins in presence of ATP by Z'-LYTE assay.
For experiment [4], the target named is PI3-kinase p110-delta/p85-alpha (Homo sapiens, UniProt O00329). The experiment is described as follows: Inhibition of His-tagged recombinant human PI3K p110delta/p85alpha expressed in baculovirus expression system using PIP2:PS lipid as substrate in presence of ATP after 1 hr by Adapta assay.
Experiment [5] has as its target 5-hydroxytryptamine receptor 2B (Homo sapiens) (UniProt P41595). The experiment is described as follows: Displacement of [3H]lysergic acid diethylamide from full length human recombinant 5HT2B receptor expressed in CHOK-1 cells at 10 uM measured after 60 mins by radiometric scintillation analysis relative to control. It is filed as cell-based. In general terms: In a radioligand displacement assay an active substance lowers the binding of a labelled ligand.

Experiment [6] concerns the target Prostaglandin E2 receptor EP3 subtype (Homo sapiens) (UniProt P43115). The experiment is described as follows: Inhibition of human prostanoid EP3 receptor at 10 uM relative to control.
In experiment [7] the target is Histamine H4 receptor (Homo sapiens) (UniProt Q9H3N8). The experiment is described as follows: Inhibition of human histamine H4 receptor at 10 uM relative to control.
Experiment [8] addresses Histamine H3 receptor (Homo sapiens) (UniProt Q9Y5N1). The experiment is described as follows: Displacement of [3H]N-alpha-Methylhistamine from full length human recombinant histamine H3 receptor expressed in CHO-K1 cells at 10 uM measured after 120 mins by radiometric scintillation analysis relative to control. It is filed as cell-based.
Experiment [9] addresses Glucocorticoid receptor (Homo sapiens) (UniProt P04150). The experiment is described as follows: Displacement of [3H]dexamethasone from full length human recombinant glucocorticoid receptor expressed in insect cells at 10 uM incubated for 24 hrs by radiometric scintillation analysis relative to control.
Experiment [10] addresses Casein kinase I isoform gamma-1 (Homo sapiens, UniProt Q9HCP0). The experiment is described as follows: Inhibition of recombinant human full-length GST-tagged CSNK1G1 expressed in baculovirus expression system using FRET-labeled Ser/Thr 05 peptide as substrate measured after 1 hr in presence of ATP by Z'-lyte assay.
Experiment [11] concerns the target Dual specificity tyrosine-phosphorylation-regulated kinase 1B (Homo sapiens, UniProt Q9Y463). The experiment is described as follows: Inhibition of recombinant full length human GST-tagged DYRK1B expressed in baculovirus expression system using serine/threonine-18 peptide as substrate incubated for 60 mins in presence of ATP by Z'-LYTE assay.
For experiment [12], the target named is Tyrosine-protein kinase Fes/Fps (Homo sapiens, UniProt P07332). The experiment is described as follows: Inhibition of recombinant His-tagged full length human FES expressed in baculovirus expression system using Tyr 01 peptide as substrate after 1 hr by Z'-LYTE assay.
Experiment [13] has as its target Serine/threonine-protein kinase mTOR (Homo sapiens, UniProt P42345). The experiment is described as follows: Inhibition of recombinant human GST-tagged mTOR catalytic domain (1360 to 2549 residues) expressed in baculovirus expression system using serine/threonine-11 peptide as substrate incubated for 60 mins in presence of ATP by Z'-LYTE assay.
Experiment [14] addresses Inhibitor of nuclear factor kappa-B kinase subunit beta (Homo sapiens, UniProt O14920). The experiment is described as follows: Inhibition of recombinant human full-length GST-tagged IKBKB expressed in baculovirus expression system using FRET-labeled Ser/Thr 05 peptide as substrate measured after 1 hr in presence of ATP by Z'-lyte assay.
Experiment [15] deals with Platelet-derived growth factor receptor alpha (Homo sapiens, UniProt P16234). The experiment is described as follows: Inhibition of recombinant human GST-tagged PDGFRalpha cytoplasmic domain (550 to 1089 residues) expressed in baculovirus expression system using tyrosine-4 peptide as substrate incubated for 60 mins in presence of ATP by Z'-LYTE assay.
Experiment [16] has as its target Proto-oncogene tyrosine-protein kinase receptor Ret (Homo sapiens, UniProt P07949, Y791F). The experiment is described as follows: Inhibition of recombinant human GST-tagged RET Y791F mutant cytoplasmic domain expressed in baculovirus expression system using tyr02 peptide as substrate incubated for 60 mins in presence of ATP by Z'-LYTE assay.
The target of experiment [17] is Ribosomal protein S6 kinase alpha-1 (Homo sapiens, UniProt Q15418). The experiment is described as follows: Inhibition of recombinant full length human His-tagged RPS6KA1 expressed in baculovirus expression system using […] peptide as substrate incubated for 60 mins in presence of ATP by Z'-LYTE assay.

For one compound, IC50 and inhibition results are on record in ChEMBL document CHEMBL4602617, “Discovery and optimization of heteroaryl piperazines as potent and selective PI3Kδ inhibitors” (Bioorg Med Chem Lett, 2020).

Sequence of Inhibitor of nuclear factor kappa-B kinase subunit beta (O14920 whole entry, the tested form may be a part): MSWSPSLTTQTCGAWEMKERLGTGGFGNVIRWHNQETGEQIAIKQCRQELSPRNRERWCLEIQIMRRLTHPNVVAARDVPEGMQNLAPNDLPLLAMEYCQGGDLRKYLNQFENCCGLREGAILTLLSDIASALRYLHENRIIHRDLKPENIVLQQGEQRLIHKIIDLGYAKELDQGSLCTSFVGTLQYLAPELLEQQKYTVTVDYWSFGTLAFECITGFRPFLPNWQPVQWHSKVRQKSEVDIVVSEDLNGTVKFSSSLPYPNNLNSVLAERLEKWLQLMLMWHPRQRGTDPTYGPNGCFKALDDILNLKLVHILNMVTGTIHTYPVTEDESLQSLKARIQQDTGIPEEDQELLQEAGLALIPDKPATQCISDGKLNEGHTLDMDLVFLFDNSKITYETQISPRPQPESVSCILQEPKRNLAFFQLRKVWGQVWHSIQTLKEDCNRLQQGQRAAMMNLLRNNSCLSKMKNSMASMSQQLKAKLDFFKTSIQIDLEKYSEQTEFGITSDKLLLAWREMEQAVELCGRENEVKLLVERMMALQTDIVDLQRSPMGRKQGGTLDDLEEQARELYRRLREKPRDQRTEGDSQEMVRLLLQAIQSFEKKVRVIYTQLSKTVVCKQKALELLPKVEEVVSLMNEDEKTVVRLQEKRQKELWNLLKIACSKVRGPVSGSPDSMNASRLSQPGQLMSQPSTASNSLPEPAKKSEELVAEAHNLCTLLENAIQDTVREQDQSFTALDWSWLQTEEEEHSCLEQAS
Sequence of Casein kinase I isoform gamma-1 (Q9HCP0 whole entry, canonical isoform): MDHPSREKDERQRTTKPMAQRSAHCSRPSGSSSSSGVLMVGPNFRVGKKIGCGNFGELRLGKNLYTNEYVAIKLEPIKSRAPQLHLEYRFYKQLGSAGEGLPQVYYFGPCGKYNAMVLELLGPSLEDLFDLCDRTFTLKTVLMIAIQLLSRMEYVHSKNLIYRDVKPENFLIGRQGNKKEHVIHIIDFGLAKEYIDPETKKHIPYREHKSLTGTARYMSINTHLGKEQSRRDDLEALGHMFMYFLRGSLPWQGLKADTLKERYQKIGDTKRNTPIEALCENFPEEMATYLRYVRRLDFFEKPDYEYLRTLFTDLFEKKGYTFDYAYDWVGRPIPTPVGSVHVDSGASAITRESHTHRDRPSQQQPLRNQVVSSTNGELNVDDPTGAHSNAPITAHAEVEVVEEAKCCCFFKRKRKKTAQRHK
Sequence of Prostaglandin E2 receptor EP3 subtype (Homo sapiens) (P43115 whole entry): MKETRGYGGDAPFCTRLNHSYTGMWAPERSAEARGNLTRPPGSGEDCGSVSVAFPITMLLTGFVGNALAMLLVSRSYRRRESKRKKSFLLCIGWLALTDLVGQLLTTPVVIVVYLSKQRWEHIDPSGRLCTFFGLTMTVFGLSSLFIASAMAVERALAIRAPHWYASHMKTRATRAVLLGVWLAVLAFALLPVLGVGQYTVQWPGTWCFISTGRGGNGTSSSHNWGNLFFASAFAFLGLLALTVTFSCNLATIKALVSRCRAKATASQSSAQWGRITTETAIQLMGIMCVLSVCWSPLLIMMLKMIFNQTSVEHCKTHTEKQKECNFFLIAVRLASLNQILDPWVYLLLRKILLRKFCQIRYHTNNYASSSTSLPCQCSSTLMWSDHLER
Sequence of 5-hydroxytryptamine receptor 2B (Homo sapiens) (P41595 whole entry): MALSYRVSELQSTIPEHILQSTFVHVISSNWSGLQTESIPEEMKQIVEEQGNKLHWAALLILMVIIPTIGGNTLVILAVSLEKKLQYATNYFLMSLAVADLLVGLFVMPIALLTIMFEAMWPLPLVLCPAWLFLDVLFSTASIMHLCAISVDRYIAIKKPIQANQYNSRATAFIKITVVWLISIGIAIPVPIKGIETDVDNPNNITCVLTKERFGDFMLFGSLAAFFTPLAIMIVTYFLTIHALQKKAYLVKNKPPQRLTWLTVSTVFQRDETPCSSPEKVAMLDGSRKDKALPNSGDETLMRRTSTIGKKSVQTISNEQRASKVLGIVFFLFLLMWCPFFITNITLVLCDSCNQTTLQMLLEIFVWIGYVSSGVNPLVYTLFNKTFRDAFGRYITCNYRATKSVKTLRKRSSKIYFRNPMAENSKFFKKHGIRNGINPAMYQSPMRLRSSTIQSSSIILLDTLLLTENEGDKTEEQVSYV
Sequence of Histamine H4 receptor (Homo sapiens) (Q9H3N8 whole entry): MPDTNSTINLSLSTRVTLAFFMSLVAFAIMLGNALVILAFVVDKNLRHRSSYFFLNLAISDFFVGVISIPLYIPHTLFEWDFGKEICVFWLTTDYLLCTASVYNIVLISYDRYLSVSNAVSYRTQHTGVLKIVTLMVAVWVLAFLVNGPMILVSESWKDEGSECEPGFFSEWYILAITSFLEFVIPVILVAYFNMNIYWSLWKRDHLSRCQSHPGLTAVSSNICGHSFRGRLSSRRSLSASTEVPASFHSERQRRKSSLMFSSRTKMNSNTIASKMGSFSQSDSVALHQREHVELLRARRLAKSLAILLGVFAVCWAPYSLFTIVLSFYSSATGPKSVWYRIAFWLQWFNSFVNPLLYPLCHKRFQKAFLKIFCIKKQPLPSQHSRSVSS
Sequence of Histamine H3 receptor (Homo sapiens) (Q9Y5N1 whole entry): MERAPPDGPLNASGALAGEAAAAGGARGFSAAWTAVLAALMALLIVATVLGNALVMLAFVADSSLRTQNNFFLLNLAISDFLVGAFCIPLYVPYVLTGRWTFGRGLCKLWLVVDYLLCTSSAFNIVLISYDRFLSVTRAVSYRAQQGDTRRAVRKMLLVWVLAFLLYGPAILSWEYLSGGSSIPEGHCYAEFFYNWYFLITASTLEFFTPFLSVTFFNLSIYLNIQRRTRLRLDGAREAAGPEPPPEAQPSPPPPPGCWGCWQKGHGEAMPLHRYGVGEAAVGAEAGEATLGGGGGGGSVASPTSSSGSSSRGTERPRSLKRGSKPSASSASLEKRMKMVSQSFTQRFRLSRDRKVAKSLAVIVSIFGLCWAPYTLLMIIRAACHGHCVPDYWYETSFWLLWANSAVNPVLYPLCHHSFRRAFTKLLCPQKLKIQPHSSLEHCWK
Sequence of Calcium/calmodulin-dependent protein kinase type 1 (Q14012 whole entry): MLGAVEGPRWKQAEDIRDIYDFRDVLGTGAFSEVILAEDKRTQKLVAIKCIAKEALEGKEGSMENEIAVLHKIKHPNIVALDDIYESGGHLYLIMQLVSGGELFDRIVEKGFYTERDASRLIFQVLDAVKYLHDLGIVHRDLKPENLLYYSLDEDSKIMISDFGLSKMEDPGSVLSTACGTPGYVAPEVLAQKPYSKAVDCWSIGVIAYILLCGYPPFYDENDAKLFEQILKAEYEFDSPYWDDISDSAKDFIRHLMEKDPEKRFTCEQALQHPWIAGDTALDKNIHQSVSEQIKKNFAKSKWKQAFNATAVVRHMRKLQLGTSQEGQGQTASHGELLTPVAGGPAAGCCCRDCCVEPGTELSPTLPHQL
Sequence of Glucocorticoid receptor (Homo sapiens) (P04150 whole entry, canonical isoform): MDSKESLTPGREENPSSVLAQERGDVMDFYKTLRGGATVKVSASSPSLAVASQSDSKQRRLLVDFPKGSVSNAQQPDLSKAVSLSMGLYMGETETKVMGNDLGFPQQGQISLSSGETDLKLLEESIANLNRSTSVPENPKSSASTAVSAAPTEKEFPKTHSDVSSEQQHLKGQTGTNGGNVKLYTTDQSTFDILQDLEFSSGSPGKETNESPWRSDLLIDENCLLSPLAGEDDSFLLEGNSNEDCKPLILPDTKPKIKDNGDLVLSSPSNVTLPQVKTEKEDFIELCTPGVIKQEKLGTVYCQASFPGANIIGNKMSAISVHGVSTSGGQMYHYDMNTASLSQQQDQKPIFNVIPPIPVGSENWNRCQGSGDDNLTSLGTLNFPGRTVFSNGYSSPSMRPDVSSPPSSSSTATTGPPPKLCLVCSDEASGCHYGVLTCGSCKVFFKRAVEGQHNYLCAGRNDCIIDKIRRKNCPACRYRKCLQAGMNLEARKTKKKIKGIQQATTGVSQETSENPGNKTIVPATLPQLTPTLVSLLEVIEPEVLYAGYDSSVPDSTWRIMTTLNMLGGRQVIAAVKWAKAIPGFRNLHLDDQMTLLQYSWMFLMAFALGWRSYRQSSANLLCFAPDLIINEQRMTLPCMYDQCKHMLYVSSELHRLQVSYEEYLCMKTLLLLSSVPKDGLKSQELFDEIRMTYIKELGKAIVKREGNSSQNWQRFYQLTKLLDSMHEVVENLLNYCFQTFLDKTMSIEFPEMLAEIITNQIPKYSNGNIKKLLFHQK
Sequence of Ribosomal protein S6 kinase alpha-1 (Q15418 whole entry): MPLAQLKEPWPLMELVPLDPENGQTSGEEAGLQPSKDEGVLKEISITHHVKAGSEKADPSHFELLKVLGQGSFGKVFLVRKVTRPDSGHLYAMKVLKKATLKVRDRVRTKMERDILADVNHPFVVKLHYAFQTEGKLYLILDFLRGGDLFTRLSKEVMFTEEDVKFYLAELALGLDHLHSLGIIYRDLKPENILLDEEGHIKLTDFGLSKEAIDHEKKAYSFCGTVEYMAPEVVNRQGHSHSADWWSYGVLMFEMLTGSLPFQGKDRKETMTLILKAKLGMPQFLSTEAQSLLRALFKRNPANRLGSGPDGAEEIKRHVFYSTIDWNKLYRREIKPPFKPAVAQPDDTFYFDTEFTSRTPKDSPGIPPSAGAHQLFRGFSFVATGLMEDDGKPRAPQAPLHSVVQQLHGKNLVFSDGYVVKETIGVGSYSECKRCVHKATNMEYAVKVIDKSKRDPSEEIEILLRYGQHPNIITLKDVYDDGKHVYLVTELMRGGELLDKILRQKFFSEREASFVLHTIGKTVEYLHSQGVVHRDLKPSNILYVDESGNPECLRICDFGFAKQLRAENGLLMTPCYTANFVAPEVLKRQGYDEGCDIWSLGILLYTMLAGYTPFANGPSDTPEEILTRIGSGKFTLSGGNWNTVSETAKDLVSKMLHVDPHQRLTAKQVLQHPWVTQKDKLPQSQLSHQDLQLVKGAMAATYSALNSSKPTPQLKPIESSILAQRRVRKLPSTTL

Broadly, the IC50 is the concentration that inhibits the measured activity by half. The inhibition is the drop in the measured response relative to a control, in per cent. Take `C[C@@H]1C[C@H]1C(=O)N1CCN(c2cnc(C#N)c(-c3cnn(C)c3)n2)C[C@H]1C`: the IC50 in experiment [1] was 0.065 µM; in [2], greater than 100 µM; in experiment [3], greater than 100 µM; in experiment [4] it was 0.884 µM; in experiment [10] it was greater than 100 µM; in [11], greater than 100 µM. Besides, the IC50 in experiment [12], in [13], in experiment [14], in [15], in experiment [16] and in experiment [17] was greater than 100 µM throughout. Besides, the inhibition in experiment [5] is 19%; in [6] it was 7%; in [7], 1%; in experiment [8], -1%; in experiment [9], 7%.
